Data as given in article PMC11995724, “Antibiotic target discovery by integrated phenotypic and activity-based profiling of electrophilic fragments” (Cell chemical biology, 2025).

Experiment: in vitro
Details: human, hek293t cells

With COc1ccc(NC(=O)C(C)Cl)cc1Cl (stereo not shown) [4-I14, 2-chloro-N-(3-chloro-4-methoxyphenyl)propanamide] the viability at 48 h, 25 µM was 90.7%.
C=CC(=O)N1CCC(C(=O)NCCC2CCS(=O)(=O)C2)CC1 (stereo not shown) [2-H05, N-[2-(1,1-dioxo-1lambda6-thiolan-3-yl)ethyl]-1-(prop-2-enoyl)piperidine-4-carboxamide] gave a viability at 48 h, 25 µM of 78.2%.
For CC(Cl)C(=O)Nc1cccc(CSc2ccccn2)c1 (stereo not shown) [5-B18, 2-chloro-N-{3-[(pyridin-2-ylsulfanyl)methyl]phenyl}propanamide], the viability at 48 h, 25 µM was 119%.
COc1ccc(C=C(C#N)C(=O)Nc2cccc3ccccc23)cc1 [9-E10, 2-cyano-3-(4-methoxyphenyl)-N-(naphthalen-1-yl)prop-2-enamide] gave a viability at 48 h, 25 µM of 105%.
With COc1ccc(OC)c(N2C(=O)C=CC2=O)c1 [10-N15, 1-(2,5-dimethoxyphenyl)-2,5-dihydro-1H-pyrrole-2,5-dione] the viability at 48 h, 25 µM was 110%.
For N#CC(=Cc1cccc2ccccc12)C(=O)NCc1ccccc1 [8-O19, N-benzyl-2-cyano-3-(naphthalen-1-yl)prop-2-enamide], the viability at 48 h, 25 µM was 48%.
CC(Cl)C(=O)NCCc1nnc(C(C)C)s1 (stereo not shown) [7-E03, 2-chloro-N-{2-[5-(propan-2-yl)-1,3,4-thiadiazol-2-yl]ethyl}propanamide] gave a viability at 48 h, 25 µM of 123%.
In the case of CCc1cccc(CC)c1NC(=O)C(C#N)=Cc1ccc(C)o1 [8-P11, 2-cyano-N-(2,6-diethylphenyl)-3-(5-methylfuran-2-yl)prop-2-enamide], the viability at 48 h, 25 µM is reported as 108%.
Compound N#CC(=Cc1ccc2ccccc2c1)C(=O)NC(N)=O [9-K10, {2-cyano-2-[(naphthalen-2-yl)methylidene]acetyl}urea] has a viability at 48 h, 25 µM of 116%.
For C=CC(=O)N(CC)Cc1cn(C)nn1 [2-O09, N-ethyl-N-[(1-methyl-1H-1,2,3-triazol-4-yl)methyl]prop-2-enamide], the viability at 48 h, 25 µM was 105%.
C=CC(=O)NCCn1cc(Cl)c(C(F)(F)F)n1 [2-F03, N-{2-[4-chloro-3-(trifluoromethyl)-1H-pyrazol-1-yl]ethyl}prop-2-enamide] showed a viability at 48 h, 25 µM of 81.6%.
Cc1ccccc1-n1c(C)cc(C(=O)CCl)c1C [10-H20, 2-chloro-1-[2,5-dimethyl-1-(2-methylphenyl)-1H-pyrrol-3-yl]ethan-1-one] showed a viability at 48 h, 25 µM of 0.349%.
Work on CC(Cl)C(=O)N[C@H]1CCO[C@@H]1c1nccn1-c1ccccc1 (mixture of isomers) [7-A12, rac-2-chloro-N-[(2R,3R)-2-(1-phenyl-1H-imidazol-2-yl)oxolan-3-yl]propanamide] yielded a viability at 48 h, 25 µM of 93.1%.
For CC(Cl)C(=O)N1CCC(C(=O)c2cccs2)CC1 (stereo not shown) [7-L13, 2-chloro-1-[4-(thiophene-2-carbonyl)piperidin-1-yl]propan-1-one], the viability at 48 h, 25 µM was 86.7%.
Compound O=C(CCl)NC1CCC(O)(c2cccc(F)c2)CC1 (stereo not shown) [5-A11, 2-chloro-N-[4-(3-fluorophenyl)-4-hydroxycyclohexyl]acetamide] has a viability at 48 h, 25 µM of 0.51%.
C=CC(=O)N1CCOCC1c1cc(F)cc(F)c1 (stereo not shown) [2-O16, 1-[3-(3,5-difluorophenyl)morpholin-4-yl]prop-2-en-1-one] gave a viability at 48 h, 25 µM of 81.8%.
In the case of C=CC(=O)N1CCC(C(=O)N2CCCC(C3OCCO3)C2)CC1 (stereo not shown) [2-L16, 1-{4-[3-(1,3-dioxolan-2-yl)piperidine-1-carbonyl]piperidin-1-yl}prop-2-en-1-one], the viability at 48 h, 25 µM is reported as 58%.
Work on C=CC(=O)NC(Cn1ccnc1)c1ccccc1 (stereo not shown) [2-M06, N-[2-(1H-imidazol-1-yl)-1-phenylethyl]prop-2-enamide] yielded a viability at 48 h, 25 µM of 84.5%.
For Cc1cccc(N(Cc2c(C3CC3)cnn2C)C(=O)CCl)c1 [5-D07, 2-chloro-N-[(4-cyclopropyl-1-methyl-1H-pyrazol-5-yl)methyl]-N-(3-methylphenyl)acetamide], the viability at 48 h, 25 µM was 0.857%.
Work on C=CC(=O)N(C)CC(=O)N1CCn2cccc2C1C (stereo not shown) [2-K10, N-methyl-N-(2-{1-methyl-1H,2H,3H,4H-pyrrolo[1,2-a]pyrazin-2-yl}-2-oxoethyl)prop-2-enamide] yielded a viability at 48 h, 25 µM of 101%.
CN(c1ccc(C(=O)CCl)cc1)S(C)(=O)=O [10-F19, N-[4-(2-chloroacetyl)phenyl]-N-methylmethanesulfonamide] gave a viability at 48 h, 25 µM of 74%.
N#CC(=Cc1ccccc1)C(=O)NCc1ccc(F)cc1 [8-P10, 2-cyano-N-[(4-fluorophenyl)methyl]-3-phenylprop-2-enamide] showed a viability at 48 h, 25 µM of 89%.
Cc1ccc(-n2c(C)cc(C(=O)CCl)c2C)cc1F [10-C06, 2-chloro-1-[1-(3-fluoro-4-methylphenyl)-2,5-dimethyl-1H-pyrrol-3-yl]ethan-1-one] showed a viability at 48 h, 25 µM of 0.213%.
For O=C(NC1CCCN(C(=O)CCl)C1)c1cc2ccccc2o1 (stereo not shown) [5-D05, N-[1-(2-chloroacetyl)piperidin-3-yl]-1-benzofuran-2-carboxamide], the viability at 48 h, 25 µM was 0.852%.
COc1ccc2[nH]cc(C3=CCN(C(=O)C=CCN(C)C)CC3)c2c1 [10-F03, 4-(dimethylamino)-1-[4-(5-methoxy-1H-indol-3-yl)-1,2,3,6-tetrahydropyridin-1-yl]but-2-en-1-one] gave a viability at 48 h, 25 µM of 92.2%.
Work on O=C(CCl)c1cc2c3c(c1)CC(=O)N3CCC2 [10-G16, 6-(2-chloroacetyl)-1-azatricyclo[6.3.1.0,4,12]dodeca-4(12),5,7-trien-2-one] yielded a viability at 48 h, 25 µM of 1.58%.
C=CC(=O)Nc1ccc(C(=O)N2CCC(S(=O)(=O)NC)C2)cc1 (stereo not shown) [3-O08, N-{4-[3-(methylsulfamoyl)pyrrolidine-1-carbonyl]phenyl}prop-2-enamide] gave a viability at 48 h, 25 µM of 95.4%.
Compound CC(Cl)C(=O)NCC1CN(S(C)(=O)=O)C1 (stereo not shown) [7-C04, 2-chloro-N-[(1-methanesulfonylazetidin-3-yl)methyl]propanamide] has a viability at 48 h, 25 µM of 118%.
In the case of N#CC(C(=O)CCl)=C1NC(C23CC4CC(CC(C4)C2)C3)=CS1 [10-F14, 2-[4-(adamantan-1-yl)-2,3-dihydro-1,3-thiazol-2-ylidene]-4-chloro-3-oxobutanenitrile], the viability at 48 h, 25 µM is reported as 61.8%.
C=CC(=O)NCc1ccc(C(=O)N2CCOCC2)cc1 [1-L17, N-{[4-(morpholine-4-carbonyl)phenyl]methyl}prop-2-enamide] showed a viability at 48 h, 25 µM of 81.2%.
With C=CC(=O)Nc1ccc(C(F)C(F)(F)F)cc1 (stereo not shown) [1-O20, N-[4-(1,2,2,2-tetrafluoroethyl)phenyl]prop-2-enamide] the viability at 48 h, 25 µM was 85.4%.
In the case of CN(c1ccccc1)S(=O)(=O)c1cccc(NC(=O)CCl)c1 [4-H04, 2-chloro-N-{3-[methyl(phenyl)sulfamoyl]phenyl}acetamide], the viability at 48 h, 25 µM is reported as 0.751%.
Work on C=CC(=O)NC(C)c1ccc(Oc2ccccc2)c(F)c1 (stereo not shown) [2-H13, N-[1-(3-fluoro-4-phenoxyphenyl)ethyl]prop-2-enamide] yielded a viability at 48 h, 25 µM of 68.8%.
Cc1ccc(-c2csc(NC(=O)CCl)n2)cc1C [5-F16, 2-chloro-N-[4-(3,4-dimethylphenyl)-1,3-thiazol-2-yl]acetamide] gave a viability at 48 h, 25 µM of 0.595%.
With C=CC(=O)N(CC)CC(=O)N1CC(C)(C)C1c1nccn1C (stereo not shown) [2-J16, N-{2-[3,3-dimethyl-2-(1-methyl-1H-imidazol-2-yl)azetidin-1-yl]-2-oxoethyl}-N-ethylprop-2-enamide] the viability at 48 h, 25 µM was 59.5%.
Work on C=CC(=O)N1CCC(C(=O)N(C)C(C)Cc2ccc(C)cc2)CC1 (stereo not shown) [2-F14, N-methyl-N-[1-(4-methylphenyl)propan-2-yl]-1-(prop-2-enoyl)piperidine-4-carboxamide] yielded a viability at 48 h, 25 µM of 79.5%.
Compound N#CC(=Cc1cccs1)C(=O)Nc1cccc2ccccc12 [9-M22, 2-cyano-N-(naphthalen-1-yl)-3-(thiophen-2-yl)prop-2-enamide] has a viability at 48 h, 25 µM of 100%.
For CC(Cl)C(=O)N1CCCC1c1cccc(N(C)C)c1 (stereo not shown) [7-A22, 2-chloro-1-{2-[3-(dimethylamino)phenyl]pyrrolidin-1-yl}propan-1-one], the viability at 48 h, 25 µM was 68.7%.
For Cc1ccc(C=C(C#N)C(=O)Nc2c(Cl)cccc2Cl)o1 [9-N21, 2-cyano-N-(2,6-dichlorophenyl)-3-(5-methylfuran-2-yl)prop-2-enamide], the viability at 48 h, 25 µM was 108%.
Work on C=CC(=O)N(Cc1cccc(Cl)c1F)C(C)C1CCOCC1 (stereo not shown) [1-F04, N-[(3-chloro-2-fluorophenyl)methyl]-N-[1-(oxan-4-yl)ethyl]prop-2-enamide] yielded a viability at 48 h, 25 µM of 58.7%.
In the case of C[C@@H](NC(=O)CCl)c1ccccc1 [6-O20, 2-chloro-N-[(1R)-1-phenylethyl]acetamide], the viability at 48 h, 25 µM is reported as 121%.
N#CC(=Cc1cccc(Cl)c1)C(=O)NCc1ccccc1 [9-L13, N-benzyl-3-(3-chlorophenyl)-2-cyanoprop-2-enamide] showed a viability at 48 h, 25 µM of 39.5%.
For CC(Cl)C(=O)NC1CCCCC1 (stereo not shown) [4-O06, 2-chloro-N-cyclohexylpropanamide], the viability at 48 h, 25 µM was 115%.
In the case of CCN(Cc1ccc(OC)c(F)c1)C(=O)CCl [5-D09, 2-chloro-N-ethyl-N-[(3-fluoro-4-methoxyphenyl)methyl]acetamide], the viability at 48 h, 25 µM is reported as 1.38%.
Work on CCc1ccc(CC)c(C(=O)CCl)c1 [10-H14, 2-chloro-1-(2,5-diethylphenyl)ethan-1-one] yielded a viability at 48 h, 25 µM of 33.6%.
Compound Cc1csc(-n2c(C)cc(C(=O)CCl)c2C)n1 [10-G05, 2-chloro-1-[2,5-dimethyl-1-(4-methyl-1,3-thiazol-2-yl)-1H-pyrrol-3-yl]ethan-1-one] has a viability at 48 h, 25 µM of 72.5%.
In the case of O=C(CCl)NC1CN(S(=O)(=O)c2ccc3c(c2)OCCO3)C1 [5-I16, 2-chloro-N-[1-(2,3-dihydro-1,4-benzodioxine-6-sulfonyl)azetidin-3-yl]acetamide], the viability at 48 h, 25 µM is reported as 2.6%.
For N#CC(=Cc1ccco1)C(=O)NC1CC1 [8-N21, 2-cyano-N-cyclopropyl-3-(furan-2-yl)prop-2-enamide], the viability at 48 h, 25 µM was 112%.
With CC(Cl)C(=O)N1CCOCC1 (stereo not shown) [5-H09, 2-chloro-1-(morpholin-4-yl)propan-1-one] the viability at 48 h, 25 µM was 103%.
In the case of C=CC(=O)NCc1ccc(-n2cccn2)cc1 [1-M07, N-{[4-(1H-pyrazol-1-yl)phenyl]methyl}prop-2-enamide], the viability at 48 h, 25 µM is reported as 81.4%.
In the case of C=CC(=O)N(Cc1nccc2c1CCCC2)C1CCCC(OC)C1 (stereo not shown) [1-F11, N-(3-methoxycyclohexyl)-N-[(5,6,7,8-tetrahydroisoquinolin-1-yl)methyl]prop-2-enamide], the viability at 48 h, 25 µM is reported as 100%.
C=CC(=O)N(Cc1ccc(Cl)o1)C1CCCC12CCOCC2 (stereo not shown) [2-K05, N-[(5-chlorofuran-2-yl)methyl]-N-{8-oxaspiro[4.5]decan-1-yl}prop-2-enamide] showed a viability at 48 h, 25 µM of 99.7%.
